Laboratory results taken from patent US8962650B2, “Therapeutic agent for tumor” (Eisai R&D Management Co., Ltd., priority 2011, dated 2015).

System: human melanoma cell line (A375)
Assay: Tumor proliferation inhibitory effect in nude mice transplanted with human melanoma cell line A375 (relative tumor volume)
Assay type: in vivo, mouse
Settings: oral once daily 10 mL/kg (Compound A 1 mg/mL, PLX4032 10 mg/mL), A375 subcutaneous
Protocol: The present invention is described in more detail by way of Examples below. Example 1 Tumor Proliferation Inhibitory Effect of the Combined Use of Compound A and PLX4032 on a Human Melanoma Cell Line (A375)
Using five nude mice in one group (CAnN.Cg-Foxn1nu/CrlCrlj, female, Charles River Laboratories Japan, Inc.), the antitumor effect of administration of Compound A, PLX4032, or both of these compounds was evaluated. The human-derived melanoma cell line A375 (ATCC) was suspended in PBS (Wako Pure Chemical Industries, Ltd) at a density of 5×10^6 cells/ml, followed by thorough mixing. The resulting mixture was subcutaneously transplanted at the right flank of the body of each mouse in an amount of 0.1 mL. Fourteen days after transplantation, the major axis and the minor axis of a tumor were measured by a digital caliper (Digimatic™ caliper, Mitsutoyo Corporation). The mice were grouped so that the average value of tumor volume was nearly equal among the groups. Also, the tumor volume was calculated according to the equations below. Tumor volume (mm^3)=major axis (mm)×minor axis (mm)×minor axis (mm)/2
Compound A was dissolved in purified water at a concentration of 1 mg/mL. Also, PLX4032 was dissolved in DMSO at a concentration of 200 mg/ml. Further, the resulting solution was diluted 20-fold with a 1% aqueous solution of methylcellulose to prepare a 10 mg/mL PLX4032 suspension.
A control group, a Compound A group, a PLX4032 group, and a Compound A and PLX4032-combination group (hereinbelow, expressed as a combination group) were set up. The aqueous solution of Compound A or the PLX4032 suspension was orally administered to the mice in the Compound A group or the PLX4032 group, respectively, once daily at 10 mL/kg. To the combination group mice, the above drug solutions were each orally administered once daily at 10 mL/kg. The administration period was 23 days. Also, administration was not given to the control group mice.
The tumor volume was measured on the initial day of administration and on the 2nd, 5th, 7th, 9th, 12th, 14th, 16th, 19th, 21st, and 23rd days after initiation of administration. The ratio of the tumor volume on each day of measurement relative to the tumor volume on the initial day of administration was calculated as a relative tumor volume (hereinbelow, expressed as RTV). Further, the average value of RTV of mice in each group was calculated. The changes in the average value of RTV with time were shown in Table 1 and FIG. 1 and the value of each group on Day 23 was shown in FIG. 2.

[1] = Day 2 after initiation of administration
[2] = Day 5 after initiation of administration
[3] = Day 7 after initiation of administration
[4] = Day 9 after initiation of administration
[5] = Day 12 after initiation of administration
[6] = Day 14 after initiation of administration
[7] = Day 16 after initiation of administration
[8] = Day 19 after initiation of administration
[9] = Day 21 after initiation of administration
[10] = Day 23 after initiation of administration

Row | SMILES | average relative tumor volume (RTV) [1] | average relative tumor volume (RTV) [2] | average relative tumor volume (RTV) [3] | average relative tumor volume (RTV) [4] | average relative tumor volume (RTV) [5] | average relative tumor volume (RTV) [6] | average relative tumor volume (RTV) [7] | average relative tumor volume (RTV) [8] | average relative tumor volume (RTV) [9] | average relative tumor volume (RTV) [10]
1 | COc1cc2nccc(Oc3ccc(NC(=O)NC4CC4)c(Cl)c3)c2cc1C(N)=O [Compound A, 4-[3-chloro-4-(cyclopropylaminocarbonyl)aminophenoxy]-7-methoxy-6-quinolinecarboxamide] | 1.77 | 2.62 | 3.40 | 3.85 | 5.12 | 5.40 | 6.30 | 7.89 | 9.16 | 10.17
2 | CCCS(=O)(=O)Nc1ccc(F)c(C(=O)c2c[nH]c3ncc(-c4ccc(Cl)cc4)cc23)c1F [PLX4032, N-(3-{[5-(4-chlorophenyl)-1H-pyrrolo[2,3-b]pyridin-3-yl]carbonyl}-2,4-difluorophenyl)propane-1-sulfonamide] | 0.98 | 0.94 | 1.00 | 1.13 | 1.46 | 1.38 | 1.52 | 1.63 | 1.80 | 1.93
